Measurements reported in ChEMBL document CHEMBL3351327, “Synthesis of some novel hydrazone and 2-pyrazoline derivatives: monoamine oxidase inhibitory activities and docking studies” (Bioorg Med Chem Lett, 2014).

What was measured:
[1] = biological target: T1, Amine oxidase [flavin-containing] A (Homo sapiens, UniProt P21397); experiment: biochemical; assay type: cell-based
T1 sequence (P21397 whole entry): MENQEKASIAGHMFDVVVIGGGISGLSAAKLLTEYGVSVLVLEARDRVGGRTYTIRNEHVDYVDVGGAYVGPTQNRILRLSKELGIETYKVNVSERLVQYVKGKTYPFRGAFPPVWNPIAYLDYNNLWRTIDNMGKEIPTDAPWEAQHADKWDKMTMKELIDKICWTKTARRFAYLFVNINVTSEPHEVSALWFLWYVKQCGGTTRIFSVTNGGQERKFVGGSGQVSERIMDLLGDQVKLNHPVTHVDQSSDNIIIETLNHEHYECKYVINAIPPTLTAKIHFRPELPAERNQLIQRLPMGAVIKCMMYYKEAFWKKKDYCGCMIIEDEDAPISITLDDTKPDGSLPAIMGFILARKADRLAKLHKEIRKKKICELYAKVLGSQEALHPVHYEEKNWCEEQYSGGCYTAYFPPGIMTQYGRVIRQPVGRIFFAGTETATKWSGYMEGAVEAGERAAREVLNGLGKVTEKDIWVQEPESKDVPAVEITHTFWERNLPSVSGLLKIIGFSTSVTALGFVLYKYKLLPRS
Description: Inhibition of human MAOA expressed in baculovirus-infected BTI insect cells assessed as H2O2 production by resorufin dye based fluorimetric method

[2] = biological target: T2, Amine oxidase [flavin-containing] B (Homo sapiens, UniProt P27338); experiment: biochemical; assay type: cell-based
T2 sequence (P27338 whole entry): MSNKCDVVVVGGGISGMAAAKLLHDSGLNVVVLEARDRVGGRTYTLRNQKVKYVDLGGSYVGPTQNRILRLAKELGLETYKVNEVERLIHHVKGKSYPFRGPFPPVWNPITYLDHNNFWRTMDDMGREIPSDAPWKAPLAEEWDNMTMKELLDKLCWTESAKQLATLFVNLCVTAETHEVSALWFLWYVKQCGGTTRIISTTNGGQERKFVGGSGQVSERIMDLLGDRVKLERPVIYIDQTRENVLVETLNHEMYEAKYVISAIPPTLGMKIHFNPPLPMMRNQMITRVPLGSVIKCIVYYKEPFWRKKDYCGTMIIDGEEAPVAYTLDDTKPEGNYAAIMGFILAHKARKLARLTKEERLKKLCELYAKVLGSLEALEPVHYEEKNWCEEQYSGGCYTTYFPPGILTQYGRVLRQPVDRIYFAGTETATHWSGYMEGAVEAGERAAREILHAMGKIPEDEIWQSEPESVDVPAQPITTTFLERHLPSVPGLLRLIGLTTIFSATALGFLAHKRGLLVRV
Description: Inhibition of human MAOB expressed in baculovirus-infected BTI insect cells assessed as H2O2 production by resorufin dye based fluorimetric method

Row | SMILES | Ki [1] | Ki [2]
1 | Cc1ccc([C@H]2CC(c3cc(Br)ccc3O)=NN2C(=O)c2ccncc2)cc1 | 0.18 µM | 2 µM
2 | Cc1ccc([C@H]2CC(c3cc(Br)ccc3O)=NN2C(=O)c2cccs2)cc1 | 0.13 µM | 1640 µM
3 | Cc1ccc(/C=C/C(=O)c2cc(Cl)ccc2O)cc1 | 0.14 µM | 7.22 µM
4 | Cc1ccc([C@H]2CC(c3cc(Cl)ccc3O)=NN2C(=O)c2ccncc2)cc1 | 0.6 µM | 5.23 µM
5 | Cc1ccc([C@H]2CC(c3cc(Cl)ccc3O)=NN2C(=O)c2ccccc2)cc1 | 0.012 µM | 0.75 µM
6 | Cc1ccc([C@H]2CC(c3cc(Cl)ccc3O)=NN2C(=O)c2snnc2C)cc1 | 0.24 µM | 72 µM
7 | Cc1ccc(/C=C/C(=O)c2cc(Br)ccc2O)cc1 | 0.13 µM | 4.22 µM
8 | Cc1ccc([C@H]2CC(c3cc(Br)ccc3O)=NN2C(=O)c2ccccc2)cc1 | 0.04 µM | –
9 | COc1ccc(C(=O)N2N=C(c3cc(Br)ccc3O)C[C@@H]2c2ccc(C)cc2)cc1 | 79.2 µM | –
10 | COc1ccc(/C=C/C(=O)c2ccc(Br)cc2)cc1 | 0.1 µM | 5.55 µM
11 | Cc1cccc(/C=C/C(=O)c2ccc(Cl)cc2)c1 | 0.16 µM | 7 µM
12 | Cc1ccc([C@H]2CC(c3cc(Br)ccc3O)=NN2C(=O)c2ccco2)cc1 | 0.45 µM | 14 µM
13 | Cc1ccc(/C=C/C(=O)c2ccc(Cl)cc2)cc1 | 0.24 µM | 7.7 µM
14 | Cc1ccc(/C=C/C(=O)c2ccc(O)cc2)cc1 | 0.6 µM | –
15 | COc1ccc(C(=O)N2N=C(c3cc(Cl)ccc3O)C[C@@H]2c2ccc(C)cc2)cc1 | 4.67 µM | –
16 | Cc1ccc([C@H]2CC(c3cc(Cl)ccc3O)=NN2C(=O)c2ccco2)cc1 | 0.11 µM | 0.99 µM

Next, values leading:

Row | Ki [1] | Ki [2] | SMILES
17 | 0.01 µM | 1.48 µM | Cc1ccc(/C=C/C(=N/NC(=O)c2snnc2C)c2ccc(O)cc2)cc1
18 | 0.56 µM | 14.9 µM | COc1ccc(C(=O)/C=C/c2ccc(C)cc2)cc1
19 | 0.034 µM | 0.52 µM | Cc1ccc(/C=C/C(=N\NC(=O)c2cccs2)c2ccc(Cl)cc2)cc1
20 | 0.24 µM | 13.9 µM | COc1ccc(/C=C/C(=O)c2ccc(Cl)cc2)cc1
21 | 0.012 µM | 1.05 µM | COc1ccc(/C=C/C(=N/NC(=O)c2snnc2C)c2ccc(Cl)cc2)cc1
22 | 0.041 µM | 0.9 µM | COc1ccc(C(/C=C/c2ccc(C)cc2)=N\NC(=O)c2snnc2C)cc1
23 | 0.034 µM | – | COc1ccc(/C=C/C(=N\NC(=O)c2ccc(OC)cc2)c2ccc(Cl)cc2)cc1
24 | 0.01 µM | 0.99 µM | Cc1cccc(/C=C/C(=N/NC(=O)c2snnc2C)c2ccc(Cl)cc2)c1
25 | 0.045 µM | 0.98 µM | COc1ccc(/C=C/C(=N\NC(=O)c2ccc(OC)cc2)c2ccc(Br)cc2)cc1
26 | 0.091 µM | 0.7 µM | COc1ccc(/C=C/C(=N\NC(=O)c2ccco2)c2ccc(Br)cc2)cc1
27 | 0.012 µM | 0.76 µM | Cc1ccc(/C=C/C(=N/NC(=O)c2snnc2C)c2ccc(Cl)cc2)cc1
